Here are results for one compound from patent US6187770A, “N-substituted azaheterocyclic compounds” (Novo Nordisk A/S, priority 1998, dated 2001).

For the test, the system named is histamine induced blood glucose rise. As to the kind of experiment: Histamine induced hyperglycemia in mice. Particulars: 1.0 mg/kg ip, 30 min before histamine chloride (90 nmol icv); blood glucose at 0 and 40 min; male NMRI mice. The class given is in vivo. The method, then:
Conscious unfasted 25 g male NMRI mice are administered histamine chloride (90 nmol) icv according to the method of Nishibori et al. (J. Pharmacol. Exp. Therap. 241, […], 1987). Blood glucose is determined at time 0 and 40 min after the histamine injection. Test compounds are administered at 1.0 mg/kg ip 30 min before the histamine injection, and % inhibition refers to the capacity of the compounds to inhibit the histamine induced blood glucose rise.

For the compound `O=C(O)CCN1CCN2c3ccccc3Sc3ccccc3C2C1` (stereo not shown) [Example 4, 3-(1,3,4,14b-Tetrahydro-2H-dibenzo[b,f]pyrazino[1,2-d][1,4]thiazepin-2-yl)-propionic acid], the “% inhibition of histamine induced hyperglycemia” value was 48%.
